“Also recorded” adds a separate entry of the source.
Key:
[1] = test system: splenic T-cells (mouse T lymphocytes); experiment: T-cell proliferation assay (ionomycin + PMA induced T-cell stimulation, tritiated thymidine uptake); assay type: cell-based, mouse (C57Bl/6)
Protocol: The principle of this assay is to measure the proliferation of mouse T lymphocytes stimulated with the combination of ionomycin plus PMA.
Cells were pelleted by centrifugation at 1500 rpm for 8 minutes. Contaminating red cells were removed by treating the pellet with ammonium chloride lysing buffer (GIBCO) for 2 minutes at 4° C. Cold medium was added and cells were again centrifuged at 1500 rpm for 8 minutes. T lymphocytes were then isolated by separation of the cell suspension on nylon wool columns as follows: Nylon wool columns were prepared by packing approximately 4 grams of washed and dried nylon wool into 20 ml plastic syringes. The columns were sterilized by autoclaving at 250° F. for 30 minutes. Nylon wool columns were wetted with warm (37° C.) culture medium and rinsed with the same medium. Washed spleen cells resuspended in warm medium were slowly applied to the nylon wool. The columns were then incubated in an upright position at 37° C. for 1 hour. Non-adherent T lymphocytes were eluted from the columns with warm culture medium and the cell suspensions were spun as above.
The cell suspension was immediately distributed into 96 well flat-bottom microculture plates (Costar) at 200 μl/well. […] Radioactivity of filter discs corresponding to individual wells was measured by standard liquid scintillation counting methods (Betacounter). Mean counts per minute of replicate wells were calculated and the results expressed as percent inhibition of tritiated thymidine uptake (proliferation) as follows: [formula]

[2] = Solubility (physical characteristics); assay type: physicochemical; details: methanol
[3] = immunosuppressant; EPO Publication No. 0184162; cited from earlier work

C=CCC1C=C(C)CC(C)CC(OC)C2OC(O)(C(=O)C(=O)N3CCCCC3C(=O)OC(C(C)=CC3CCC(O)C(OC)C3)C(C)C(O)CC1=O)C(C)CC2OC (stereo not drawn) [FR 900506, reference compound]
inhibition at 0.01 µg/mL ([1]; Mus musculus, T-cell, read-out: inhibition by the standard): 99%

CC[C@@H]1C=C2COC1(O)C[C@H](O)[C@@H](C)[C@@H](/C(C)=C/[C@@H]1CC[C@@H](O)[C@H](OC)C1)OC(=O)[C@@H]1CCCCN1C(=O)C(=O)[C@]1(O)O[C@H]([C@@H](OC)C[C@@H](C)C2)[C@@H](OC)C[C@H]1C [Compound I]
Inhibition of T-cell proliferation upon addition of IL2 ([1]; 50 units/ml recombinant IL2 added at the initiation of culture): reversed | IC50 ([1]; Mus musculus, T-cell, based on a series of 5 additional experiments, read-out: IC50, generally in the range of): 1.57 to 5.2 ng/mL | immunosuppressant activity (inhibition of T-cell activation / T-cell proliferation assay) ([1]; result in words): positive inhibition of T-cell activation; also recorded: positive immunosuppressive activity | Solubility [2]: Solubility in methanol

C=CC[C@@H]1/C=C(\C)C[C@H](C)C[C@H](OC)[C@H]2O[C@@](O)(C(=O)C(=O)N3CCCC[C@H]3C(=O)O[C@H](/C(C)=C/[C@@H]3CC[C@@H](O)[C@H](OC)C3)[C@H](C)[C@@H](O)CC1=O)[C@H](C)C[C@@H]2OC [FK-506]
times more effective than cyclosporin (reputed) [3]: 100 times

From US5268282A, “Cyclic FR-900520 microbial biotransformation agent” (Merck & Co., Inc., priority 1992, dated 1993)
